One experiment deals with 3T3-L1 cells. The experiment can be described thus: Lipid accumulation assay in adipocytes (Oil red O staining). Particulars: for inhibition at 0.005 µg/mL / inhibition at 0.01 µg/mL / inhibition at 0.05 µg/mL / inhibition at 0.1 µg/mL / inhibition at 0.5 µg/mL: Mus musculus, read-out: Inhibition (%) of lipid accumulation; for effect on lipid accumulation, in words: over the doses tested, 3T3-L1, Oil red O. Type of experiment: cell-based, Mouse.

Experiment [1] concerns human subcutaneous preadipocytes. In words: Differentiation assay in human subcutaneous adipocytes (glycerol liberated from triglyceride). Type of experiment: cell-based. The protocol:
The inhibition of lipid accumulation and differentiation assays examined the ability of compounds to inhibit the differentiation of human subcutaneous preadipocytes into adipocytes. Cells were grown to confluency such that all cells were synchronized and then differentiated. Cryopreserved preadipocytes were passaged with preadipocyte medium (PM-1). Cells were fed every other day with PM-1 until confluent. To induce differentiation, PM-1 medium was replaced with differentiation medium (DM-2) including insulin, dexamethasone, isobutyl methylxanthine, PPAR-γ agonist, TNF-α and test compounds at day two. After 7 days, the medium was changed to Adipocyte medium without the test compounds. On day 16 of the assay, cytotoxicity and lipid accumulation were measured. Medium was removed, leaving 50 μl in each well. 10 μl Cell Titer Blue reagent was added to each well. Cells were incubated at 37° C. for 2 hours. […] Fluorescence was measured at excitation 560 nm/emission 590 nm. […] The optical density was read at 540 nm after 15 minutes. […]
The lipid accumulation assay of Example 28 was carried out with Annona squamosa extracts. […] After 2 weeks of treatment, cells were washed with PBS, lysed and triglyceride measured by total TG assay kit (Zen-bio). The reagents contain microbial lipase and the amount of glycerol liberated from triglyceride was measured. […]

For another experiment, the system named is 3T3-L1 pre-adipocytes. The experiment can be described thus: Intracellular triglyceride (TG) content assay. In kind it is cell-based, Mouse. The settings on record: 10 ng/ml; 3T3-L1, 8 days. The protocol: […] The cells were washed with PBS, scraped with homogenizing solutions. The residual cell lysate was centrifuged at 3000 g for 5 min to remove fat layers. The supernatants were assayed. The triglyceride levels were measured by using a commercial kit according to the manufacturer's instructions (#10010303, Cayman Chem., USA). As adipocytes differentiate, their intracellular levels of triglyceride increase continuously.

Read-outs that look alike come from different tables or passages of the source.

Experimental for 3T3-L1 cells: Mouse embryo fibroblast 3T3-L1 cells (purchased from American Type Culture Collection) were cultured in Dulbecco's modified Eagle's medium (DMEM) (GIBCO) containing 10% bovine calf serum until confluent. Two days post-confluence (D0), the cells were stimulated to differentiate into an adipocyte-like phenotype by adding DMEM containing 10% fetal bovine serum (FBS), 5 μg/ml insulin, 0.5 mM 3-isobutyl-1-methylxanthine (IBMX) and 1 μM dexamethasone for two days (D2). Cells were then maintained in 10% FBS/DMEM medium with 5 μg/ml insulin for another two days (D4), followed by culturing with 10% FBS/DMEM medium for four days (D8). Test samples at various concentrations were added to the cells from Day 0 to Day 8 of adipogenesis, during which the medium was exchanged every 2 days with fresh medium containing the test sample. On Day 8, lipid droplets in cells were stained with Oil red O (ORO) and signal measured at 510 nm.
Briefly, three concentrations of Annona AS-EE3 (100% EtOH) and AS-EE4 (70% EtOH) extracts (0.1, 0.5 and 1 μg/ml) and positive control TNF-α(10 ng/mL) were used to treat 3T3-L1 cells during the differentiation period (from Day 0 to Day 8 of adipogenesis). Cell culture medium containing extracts was changed every 2 days and ORO staining was used to detect lipid droplet accumulation in cells.
Three concentrations of the Annona hexane extracts (0.05, 0.1 and 0.5 μg/ml) were used to treat 3T3-L1 cells during the differentiation period (from Day 0 to Day 8 of adipogenesis), then stained for lipid accumulation on Day 8.
Similar to the previous extracts, each EtOAc extract was tested at three doses of 0.05 μg/ml, 0.1 μg/ml and 0.5 μg/ml.
Similar to the previous extracts, each of the CO2 extracts were tested at the following six doses of 0.0625 μg/ml, 0.125 μg/ml, 0.25 μg/ml, 0.35 μg/ml, 0.5 μg/ml, and 1 μg/ml.

`CCCCCCC(O)CCCC(O)C1CCC(C2CCC(C(O)CCCCCCCCCCCCC3=CC(C)OC3=O)O2)O1` (stereo not drawn) [SA1, Squamocin]: in the experiment with 3T3-L1 cells (3T3-L1, 0 h), the inhibition (usually the drop in the measured response relative to a control, in per cent) at 0.005 µg/mL worked out at 10.7 ± 10.9%; the inhibition at 0.01 µg/mL worked out at 37.8 ± 4.4%; the inhibition at 0.05 µg/mL came out at 72.3 ± 3.1%; the inhibition at 0.1 µg/mL was 71.6 ± 1.9%. The inhibition at 0.5 µg/mL in the experiment on 3T3-L1 cells (3T3-L1, 0 h) is 66.7 ± 4.7%. Also, in the experiment with 3T3-L1 cells, the “effect on lipid accumulation, in words” value is reported as “high efficacy in a dose dependent manner”.

For the compound `C=C1C[C@@]23CC[C@H]4[C@@](C)(CCC[C@@]4(C)C(=O)O)[C@@H]2CC[C@@H]1C3` [SA2, kaurenoic acid], in the experiment on 3T3-L1 cells (0 h, 0.005 μg/ml, 3T3-L1, treated Day 0-8, Oil red O), the inhibition at 0.005 µg/mL was determined as 2 ± 21.9%. The inhibition at 0.01 µg/mL in the experiment with 3T3-L1 cells (0 h, 0.01 μg/ml, 3T3-L1, treated Day 0-8, Oil red O) amounted to 0%. Besides, the inhibition at 0.05 µg/mL with 3T3-L1 cells (0 h, 0.05 μg/ml, 3T3-L1, treated Day 0-8, Oil red O) worked out at 9.8 ± 13.6%. Further, in the experiment on 3T3-L1 cells (0 h, 0.1 μg/ml, 3T3-L1, treated Day 0-8, Oil red O), the inhibition at 0.1 µg/mL came to 12.6 ± 11.7%. Besides, in the experiment on 3T3-L1 cells (0 h, 0.5 μg/ml, 3T3-L1, treated Day 0-8, Oil red O), the inhibition at 0.5 µg/mL stood at 7.8 ± 17.1%. In addition, the “effect on lipid accumulation, in words” value in the experiment on 3T3-L1 cells is listed as “weaker effect”.

Turning to TNF-α [reference compound], the “Concentration of Glycerol” value was 4.40 µM in experiment [1] (0.01 μg/ml, control 208.28) and 4.40 in experiment [1] (TNF-α 0.01 μg/mL, control 208.28 (Table 32)). Further, the “Inhibition (%) of intracellular triglyceride level” value in the experiment with 3T3-L1 pre-adipocytes was found to be 55.1%.

The values are drawn from US20230027219A1, “Skin Care Compositions and Methods of Use Thereof” (Unigen, Inc., priority 2013, published 2023).
